From patent publication US9840500B2, “Compounds as dual inhibitors of histone methyltransferases and DNA methyltransferases” (FUNDACIÓN PARA LA INVESTIGACIÓN MÉDICA APLICADA, priority 2014, dated 2017)

Key:
human G9a enzyme = molecular target: T1, human G9a enzyme (Homo sapiens, UniProt Q96KQ7); test: G9a enzyme activity assay (TR-FRET); assay type: biochemical
T1 sequence (Q96KQ7 1-1210): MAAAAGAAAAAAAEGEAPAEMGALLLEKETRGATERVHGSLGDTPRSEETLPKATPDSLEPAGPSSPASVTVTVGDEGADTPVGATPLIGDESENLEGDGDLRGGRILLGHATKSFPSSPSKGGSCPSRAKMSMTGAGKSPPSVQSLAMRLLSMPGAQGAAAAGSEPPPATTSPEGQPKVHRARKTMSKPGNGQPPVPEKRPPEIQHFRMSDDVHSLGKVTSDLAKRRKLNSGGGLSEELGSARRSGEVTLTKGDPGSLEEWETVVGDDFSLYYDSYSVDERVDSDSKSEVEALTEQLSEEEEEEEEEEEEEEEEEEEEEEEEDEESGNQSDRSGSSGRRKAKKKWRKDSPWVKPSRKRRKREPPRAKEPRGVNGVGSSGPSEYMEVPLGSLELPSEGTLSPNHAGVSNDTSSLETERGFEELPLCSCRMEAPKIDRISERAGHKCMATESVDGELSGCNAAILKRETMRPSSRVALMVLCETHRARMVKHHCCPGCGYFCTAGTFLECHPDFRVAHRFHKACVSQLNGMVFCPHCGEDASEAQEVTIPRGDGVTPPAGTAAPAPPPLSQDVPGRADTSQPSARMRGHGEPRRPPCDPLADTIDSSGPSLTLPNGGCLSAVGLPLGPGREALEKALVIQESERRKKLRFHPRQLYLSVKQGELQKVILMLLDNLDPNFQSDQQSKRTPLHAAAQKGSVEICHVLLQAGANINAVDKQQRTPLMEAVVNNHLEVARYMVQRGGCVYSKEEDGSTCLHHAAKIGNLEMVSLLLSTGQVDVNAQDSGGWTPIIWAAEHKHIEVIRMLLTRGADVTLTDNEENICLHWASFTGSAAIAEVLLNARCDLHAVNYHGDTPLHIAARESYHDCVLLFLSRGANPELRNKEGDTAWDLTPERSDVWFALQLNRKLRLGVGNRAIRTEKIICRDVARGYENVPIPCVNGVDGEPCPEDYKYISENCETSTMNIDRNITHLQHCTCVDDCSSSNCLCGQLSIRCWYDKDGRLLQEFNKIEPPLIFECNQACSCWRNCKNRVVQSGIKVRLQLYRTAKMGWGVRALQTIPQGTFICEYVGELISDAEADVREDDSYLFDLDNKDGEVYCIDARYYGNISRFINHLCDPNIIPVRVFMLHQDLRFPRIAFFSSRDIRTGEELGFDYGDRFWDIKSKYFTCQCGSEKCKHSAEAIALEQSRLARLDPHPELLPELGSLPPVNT
Protocol: The biochemical assay to measure G9a enzyme activity relies on time-resolved fluorescence energy transfer (TR-FRET) between europium cryptate (donor) and XL665 (acceptor). […] The human G9a enzyme expressed in a baculovirus infected Sf9 cell expression system was obtained from BPS Biosciences (Cat. #51001). […] Final percentage of DMSO was 0.5%. • 2 μl of 1 nM G9a enzyme diluted in assay buffer. […] Final concentration 150 nM. • Then, add 5 μl of streptavidin XL665 beads. Final concentration of 16 μM. • Read the plate after 1 hour of incubation at room temperature.
(§1) For each well, fluorescence was measured at 620 nm and 665 nm. A ratio (665 nm/620 nm) was then calculated in order to minimize medium interferences. Positive control was obtained in the presence of the vehicle of the compounds. Negative control was obtained in the absence of G9a enzyme activity. Calculated IC50 values were determined using GraphPrism using 4-parameters inhibition curve.

OCI-Ly10 = test: Cell proliferation assay, OCI-Ly10 (ABC-DLBCL); assay type: cell-based; conditions: Homo sapiens, 48 hours of treatment, Table 3
Protocol: (§2) Cell proliferation was analyzed after 48 hours of in vitro treatment using the CellTiter 96 Aqueous One Solution Cell Proliferation Assay (Promega, Madison, Wis.). This is a colorimetric method for determining the number of viable cells in proliferation.
(§3) For the assay, suspension cells were cultured by triplicate at a density of 1×10^6 cells/ml in 96-well plates (100.000 cells/well, 100 μl/well), except for OCILY-3 and OCILY-10 cell lines which were cultured at a density of 0.5×10^6 cells/ml (50.000 cells/well, 100 μl/well) and for HepG2, Hep3B and PLC/PRF/5 cell ines which were cultured at a density of 3000 cells/well, 100 μl/well). Adherent cells were obtained from 80-90% confluent flasks and 100 μl of cells were seeded at a density of 5000 cells/well in 96-well plates by triplicate. Before addition of the compounds, adherent cells were allowed to attach to the bottom of the wells for 12 hours. In all cases, only the 60 inner wells were used to avoid any border effects.
(§4) After 48 hours of treatment, plates with suspension cells were centrifuged at 800 g for 10 minutes and medium was removed. The plates with adherent cells were flicked to remove medium. Then, cells were incubated with 100 ul/well of medium and 20 ul/well of CellTiter 96 Aqueous One Solution reagent. After 1-3 hours of incubation at 37° C., absorbance was measured at 490 nm in a 96-well plate reader. The background absorbance was measured in wells with only cell line medium and solution reagent. Data was calculated as a percentage of total absorbance of treated cell/absorbance of non treated cells.

DNMT1 = DNMT1 (Homo sapiens, UniProt P26358); test: DNMT1 enzyme activity assay (TR-FRET, EPIgeneous methyltransferase assay); assay type: biochemical
Protocol: The biochemical assay to measure DNMT1 enzyme activity relies on time-resolved fluorescence energy transfer (TR-FRET) between lumi4-Tb (donor) and d2 (acceptor) using the EPIgeneous methyltransferase assay (CisBio Cat#62SAHPEB). […] TR-FRET signal is inversely proportional to the concentration of SAH, product of DNMT1 enzyme activity, in the sample.
The human DNMT1 was obtained from Reaction Biology Corp. (Cat# DMT-21-124). […] Final percentage of DMSO was 0.5%. • 2 μl of 1 nM DNMT1 enzyme diluted in assay buffer.
as §1

CEMO-1 = test: Cell proliferation assay, CEMO-1 (ALL); assay type: cell-based, human; conditions: Homo sapiens; 48 hours of treatment; Table 3
Protocol: as §2, §3, §4

LAL-CUN-2 = test: Cell proliferation assay, LAL-CUN-2 (ALL); assay type: cell-based; conditions: 48 hours of treatment; Table 3
Protocol: as §2, §3, §4

OCI-Ly3 = test: Cell proliferation assay, OCI-Ly3 (ABC-DLBCL); assay type: cell-based; conditions: Homo sapiens, 48 hours of treatment, Table 3
Protocol: as §2, §3, §4

PLC/PRF/5 = test: Cell proliferation assay, PLC/PRF/5 (HCC); assay type: cell-based; conditions: Homo sapiens, 48 hours of treatment, Table 3
Protocol: as §2, §3, §4

HepG2 = test: Cell proliferation assay, HepG2 (HCC); assay type: cell-based; conditions: Homo sapiens, 48 hours of treatment, Table 3
Protocol: as §2, §3, §4

Hep3B = test: Cell proliferation assay, Hep3B (HCC); assay type: cell-based; conditions: Homo sapiens, 48 hours of treatment, Table 3
Protocol: as §2, §3, §4

Sequence of DNMT1 (P26358 whole entry): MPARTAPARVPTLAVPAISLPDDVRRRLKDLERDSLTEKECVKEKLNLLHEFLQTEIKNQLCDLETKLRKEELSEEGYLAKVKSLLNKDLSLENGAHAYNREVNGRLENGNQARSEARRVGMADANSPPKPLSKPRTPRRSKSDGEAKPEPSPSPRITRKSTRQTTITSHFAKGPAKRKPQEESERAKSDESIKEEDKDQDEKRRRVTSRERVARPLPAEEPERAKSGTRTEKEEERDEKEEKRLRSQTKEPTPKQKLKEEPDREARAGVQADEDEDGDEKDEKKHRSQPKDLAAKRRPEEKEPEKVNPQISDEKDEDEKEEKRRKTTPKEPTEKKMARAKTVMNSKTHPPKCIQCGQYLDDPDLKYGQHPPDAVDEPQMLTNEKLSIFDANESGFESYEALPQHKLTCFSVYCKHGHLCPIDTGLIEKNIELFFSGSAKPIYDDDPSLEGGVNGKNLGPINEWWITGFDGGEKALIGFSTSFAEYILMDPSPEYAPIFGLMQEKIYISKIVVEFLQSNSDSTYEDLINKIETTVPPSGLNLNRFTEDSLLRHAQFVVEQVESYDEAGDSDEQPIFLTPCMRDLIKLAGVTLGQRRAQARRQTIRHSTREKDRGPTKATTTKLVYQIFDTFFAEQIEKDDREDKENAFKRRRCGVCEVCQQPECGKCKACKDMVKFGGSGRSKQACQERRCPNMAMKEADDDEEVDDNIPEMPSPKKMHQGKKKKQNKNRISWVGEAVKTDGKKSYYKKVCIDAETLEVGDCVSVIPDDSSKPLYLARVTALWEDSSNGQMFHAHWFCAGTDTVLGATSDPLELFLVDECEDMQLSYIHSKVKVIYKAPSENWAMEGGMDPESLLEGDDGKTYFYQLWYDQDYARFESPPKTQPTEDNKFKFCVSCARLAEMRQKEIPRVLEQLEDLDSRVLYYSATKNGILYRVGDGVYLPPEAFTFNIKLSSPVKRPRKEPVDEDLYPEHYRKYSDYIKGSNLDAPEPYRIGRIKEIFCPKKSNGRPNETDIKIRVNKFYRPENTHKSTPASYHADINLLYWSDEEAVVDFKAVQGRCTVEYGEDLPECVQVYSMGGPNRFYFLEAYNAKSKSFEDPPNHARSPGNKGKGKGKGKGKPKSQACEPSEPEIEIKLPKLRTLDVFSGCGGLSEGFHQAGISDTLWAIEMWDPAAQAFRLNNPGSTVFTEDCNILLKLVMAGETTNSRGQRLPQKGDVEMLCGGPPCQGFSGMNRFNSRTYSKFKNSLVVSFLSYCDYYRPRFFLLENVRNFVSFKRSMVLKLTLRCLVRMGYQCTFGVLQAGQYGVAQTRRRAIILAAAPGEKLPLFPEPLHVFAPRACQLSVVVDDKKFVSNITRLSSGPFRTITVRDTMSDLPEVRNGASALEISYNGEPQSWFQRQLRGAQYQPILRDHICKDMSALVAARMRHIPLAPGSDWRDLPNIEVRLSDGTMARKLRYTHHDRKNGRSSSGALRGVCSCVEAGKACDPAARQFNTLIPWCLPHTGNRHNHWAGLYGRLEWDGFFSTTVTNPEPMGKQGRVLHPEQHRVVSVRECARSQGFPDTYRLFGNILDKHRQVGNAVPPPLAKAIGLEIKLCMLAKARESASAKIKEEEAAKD

Compound: COc1cc2c(NC3CCCC3)cc(C)nc2cc1OCCCN1CCCC1 [Compound 3-24]
- IC50 (human G9a enzyme): < 100 nM
- GI50 (OCI-Ly10): 1000 to 10000 nM
- IC50 (DNMT1): 1000 to 10000 nM

Compound: COc1cc2c(NC3CCN(C)CC3)cc(C3=CCCCC3)nc2cc1OCCCN1CCCC1 [Compound 6-01, 2-(cyclohexen-1-yl)-6-methoxy-N-(1-methyl-4-piperidyl)-7-(3-pyrrolidin-1-ylpropoxy)quinolin-4-amine; 2,2,2-trifluoroacetic acid]
- GI50 (CEMO-1): 1000 to 10000 nM
- IC50 (human G9a enzyme): < 100 nM
- GI50 (LAL-CUN-2): 1000 to 10000 nM
- IC50 (DNMT1): 100 to 500 nM

Compound: COc1cc2c(NC3CCN(C)CC3)cc(-c3ccco3)nc2cc1OCCCN1CCCC1 [Compound 3-40]
- GI50 (CEMO-1): < 100 nM
- IC50 (human G9a enzyme): < 100 nM
- GI50 (LAL-CUN-2): 100 to 1000 nM
- GI50 (OCI-Ly10): < 100 nM
- IC50 (DNMT1): 100 to 500 nM
- GI50 (OCI-Ly3): < 100 nM

Compound: CNC(=O)CCNc1cc(-c2ccc(C)o2)nc2cc(OCCCN3CCCC3)c(OC)cc12 [Compound 3-19]
- GI50 (CEMO-1): 1000 to 10000 nM
- GI50 (PLC/PRF/5): 1000 to 10000 nM
- GI50 (HepG2): ≤ 10000 nM
- GI50 (Hep3B): 1000 to 10000 nM
- GI50 (OCI-Ly10): 100 to 1000 nM
- GI50 (OCI-Ly3): 100 to 1000 nM

Compound: COc1cc2c(NC3CCNCC3)cc(-c3ccc(C)o3)nc2cc1OCCCN1CCCC1 [Compound 3-08]
- GI50 (CEMO-1): 1000 to 10000 nM
- IC50 (human G9a enzyme): < 100 nM
- GI50 (LAL-CUN-2): 1000 to 10000 nM
- GI50 (OCI-Ly10): ≤ 10000 nM
- IC50 (DNMT1): 100 to 500 nM
- GI50 (OCI-Ly3): 1000 to 10000 nM

Compound: COc1cc2c(NC3CC4(CCN(C)C4)C3)cc(-c3ccc(C)o3)nc2cc1OCCCN1CCCC1 (stereo not shown) [Compound 5-03]
- GI50 (LAL-CUN-2): 1000 to 10000 nM
- GI50 (OCI-Ly3): 100 to 1000 nM

Compound: CCc1ccc(-c2cc(NC3CCN(C)CC3)c3cc(OC)c(OCCCN4CCCC4)cc3n2)o1 [Compound 3-41]
- GI50 (PLC/PRF/5): 100 to 1000 nM
- GI50 (HepG2): 100 to 1000 nM
- GI50 (Hep3B): 100 to 1000 nM
- GI50 (LAL-CUN-2): 100 to 1000 nM

Compound: CCc1ccc(-c2cc(NCC3CCN(C)CC3)c3cc(OC)c(OCCCN4CCCC4)cc3n2)o1 [Compound 3-42]
- GI50 (PLC/PRF/5): 100 to 1000 nM
- GI50 (HepG2): < 100 nM
- GI50 (Hep3B): 100 to 1000 nM
- GI50 (LAL-CUN-2): 100 to 1000 nM
- GI50 (OCI-Ly3): 100 to 1000 nM

Compound: COc1cc2c(NC3CCN(C)CC3)cc(-c3ccoc3)nc2cc1OCCCN1CCCC1 [Compound 3-27]
- GI50 (CEMO-1): 1000 to 10000 nM
- IC50 (human G9a enzyme): < 100 nM
- GI50 (LAL-CUN-2): ≤ 10000 nM
- GI50 (OCI-Ly10): 100 to 1000 nM
- IC50 (DNMT1): 1000 to 10000 nM
- GI50 (OCI-Ly3): ≤ 10000 nM

Compound: CCc1ccc(-c2cc(NC3CCC34CCN(C)CC4)c3cc(OC)c(OCCCN4CCCC4)cc3n2)o1 (stereo not shown) [Compound 5-07, 2-(5-ethyl-2-furyl)-6-methoxy-N-(7-methyl-7-azaspiro[3.5]nonan-3-yl)-7-(3-pyrrolidin-1-ylpropoxy)quinolin-4-amine; 2,2,2-trifluoroacetic acid]
- GI50 (PLC/PRF/5): 100 to 1000 nM
- GI50 (HepG2): 100 to 1000 nM
- GI50 (Hep3B): 100 to 1000 nM
- GI50 (OCI-Ly3): < 100 nM
